We go through one compound from US20130281526A1, “METHOD FOR TREATING IRRITABLE BOWEL SYNDROME WITH DIARRHEA” (SUCAMPO AG, priority 2012, published 2013).

Test [1] concerns patients with irritable bowel syndrome with diarrhea. Briefly: Weekly responder rate for relief of IBS symptoms (7-point balanced scale) in patients. In kind it is in vivo, human. The settings on record: 16 mcg per day, responder = moderately or significantly relieved. The text has this: The patients who had 25% or more loose or very loose stools during the baseline were enrolled as a patient with irritable bowel syndrome with diarrhea. The patients received placebo or lubiprostone 16 mcg per day.

Test [2] has the same test system. Briefly: Subject symptom assessments, change from baseline after 12 weeks treatment. Type of test: in vivo, human. Particulars: 16 mcg per day for 12 weeks. As to the method: The patients with irritable bowel syndrome with diarrhea defined in Example 1 received luboiprostone 16 mcg per day for 12 weeks.
The assessments were conducted by the following criterias.
Subject Evaluation of Abdominal Bloating: 0=Absent, 1=Mild, 2=Moderate, 3=Severe, and 4=Very Severe Subject Evaluation of Abdominal. Discomfort/Pain: 0=Absent, 1=Mild, 2=Moderate, 3=Severe, and 4=Very Severe Subject Evaluation of Constipation Severity: 0= Absent, 1=Mild, 2=Moderate, 3=Severe, and 4=Very Severe BM Frequency=(7×Number of BMs)/(Number of days) Subject Evaluation of Bowel Straining: 0=Absent, 1=Mild, 2=Moderate, 3=Severe, and 4=Very Severe

For `CCCCC(F)(F)[C@@]1(O)CC[C@H]2[C@@H](CC(=O)[C@@H]2CCCCCCC(=O)O)O1` [lubiprostone, (−)-7-[(2R, 4aR, 5R, 7aR)-2-(1,1-difluoropentyl)-2-hydroxy-6-oxooctahydrocyclopenta[b]pyran-5-yl]heptancoic acid], the “Weekly Responder Rate” value is 33.8% in test [1] (Week 2), 34.9% in test [1] (Week 3) and 34.7% in test [1] (Week 4). The “BM Frequency, change from the baseline after the treatment” value in test [2] (BM Frequency=(7×Number of BMs)/(Number of days), baseline 3.64) is 0.36. Further, in test [2] (score 0=Absent to 4=Very Severe, baseline 2.80), the “Abdominal Discomfort/Pain, change from the baseline after the treatment” value is listed as −1.08. Also, the “Constipation Severity, change from the baseline after the treatment” value in test [2] (score 0=Absent to 4=Very Severe, baseline 3.16) was −1.31. Moreover, the “Abdominal Bloating, change from the baseline after the treatment” value in test [2] (score 0=Absent to 4=Very Severe, baseline 3.28) is −1.37. In addition, the “Bowel Straining, change from the baseline after the treatment” value in test [2] (score 0=Absent to 4=Very Severe, baseline 4.00) is reported as −2.00.
